Assay [1] addresses ligand binding domain of human FXR (Homo sapiens (Human), UniProt Q96RI1). The assay can be described thus: FXR ligand binding assay (LanthaScreen TR-FRET, SRC2-2 peptide recruitment). Conditions: for Emax: extent of activation relative to GW4064, read-out: % Efficacy. How it is done: The affinity of FXR ligands for the ligand binding domain of FXR was determined using a commercially available human FXR ligand binding assay (LanthaScreen, Thermofisher Cat # PV4833). […] Binding of FXR ligands to the FXR ligand binding domain promotes binding of the fluorescein-labelled SRC2-2 peptide. This causes a FRET signal between the terbium-labelled anti-GST antibody and the fluorescein-labelled SRC peptide which are both bound to the FXR ligand binding domain.
Test compounds are dissolved in DMSO and a 3-fold serial dilution series is generated, then further diluted into assay buffer. The compounds are mixed with 5 nM GST-tagged FXR ligand binding domain, 5 nM Tb-labelled anti-GST antibody and 500 nM fluorescein-labelled SRC2-2 peptide in a pH7.4 buffer. The reaction is incubated at room temperature for 1 hour, then the FRET signal is measured as the ratio of the 520 nm/495 nm emission following excitation at 340 nm. The change in FRET signal is plotted against the test article concentration and fit to a 3-parameter logistical equation. The concentration required to produce 50% activation is expressed as pEC50 (−log EC50), and the extent of activation is expressed relative to GW4064 as % activation.
In general terms: In TR-FRET formats the signal depends on donor and acceptor labels being close together.

For assay [2], the target named is human Farnesoid X receptor ligand-binding domain/Gal4 DNA binding domain chimera (Homo sapiens (Human), UniProt Q96RI1). The assay can be described thus: Cell-based assay of FXR activation (FXR-UAS-bla HEK 293T beta-lactamase reporter). Particulars: cellular FXR beta-lactamase reporter assay; for Emax: HEK-293T, extent of activation relative to GW4064, read-out: % Efficacy; for EC50: FXR-UAS-bla HEK 293T cells, 16 h, pEC50 = -log EC50. How it is done:
FXR activation was measured using a cell line and procedure obtained from Life Technologies (Cat # K1691). FXR-UAS-bla HEK 293T cells contain a human Farnesoid X receptor ligand-binding domain/Gal4 DNA binding domain chimera stably integrated into the CellSensor® UAS-bla HEK 293T cell line. The CellSensor® UAS-bla HEK 293T contains a beta-lactamase reporter gene under control of a UAS response element stably integrated into HEK 293T cells. Activation of FXR by bound ligands results in transcriptional activation of the beta-lactamase reporter gene, which is detected via assay of beta-lactamase activity.
Cells are harvested and diluted into assay medium containing phenol red-free DMEM supplemented with 2% Charcoal-stripped FBS, pyruvate, non-essential amino acids. Cells are then transferred to a 384 well assay plate. Test compounds are dissolved in DMSO and a 3-fold serial dilution series is generated, then further diluted into assay medium. Compounds in assay medium are added to cells in the 384 well plate and allowed to incubate 16 h at 37 C in the presence of 5% CO2.
A FRET-based […] is loaded into cells as its acetomethoxy ester. Intracellular esterases liberate free CCF4, a cephalosporin core linking 7-hydroxycoumarin to fluorescein. In the presence of beta-lactamase activity produced in the presence of FXR agonists, cleavage of CCF4 spatially separates the two dyes and disrupts FRET, so that exciting the coumarin at 409 nm now produces a blue fluorescence signal at 447 nm. The change in FRET signal is plotted against the test compound concentration and fit to a 3-parameter logistical equation. The concentration required to produce 50% activation is expressed as pEC50 (−log EC50), and the extent of activation is expressed relative to GW4064 as % activation.

[3] abbreviates: -log EC50, concentration required to produce 50% activation.

Molecules are shown by their SMILES.

From US10793568B2, “Hormone receptor modulators for treating metabolic conditions and disorders” (ARDELYX, INC., priority 2016, dated 2020) come the findings set out here.

Chain of ligand binding domain of human FXR (Q96RI1 262-486): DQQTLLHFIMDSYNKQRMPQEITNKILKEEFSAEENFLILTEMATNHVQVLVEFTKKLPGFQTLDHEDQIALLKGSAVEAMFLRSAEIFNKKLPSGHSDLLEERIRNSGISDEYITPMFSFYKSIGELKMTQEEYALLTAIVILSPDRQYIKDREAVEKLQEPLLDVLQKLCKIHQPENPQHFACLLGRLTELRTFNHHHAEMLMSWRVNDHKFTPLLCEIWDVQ
Chain of human Farnesoid X receptor ligand-binding domain/Gal4 DNA binding domain chimera (Q96RI1 262-486, stated change not applied): as the sequence (Q96RI1 262-486) above
Chain of human Farnesoid X receptor ligand-binding domain/Gal4 DNA binding domain chimera (P04386 1-147 partner): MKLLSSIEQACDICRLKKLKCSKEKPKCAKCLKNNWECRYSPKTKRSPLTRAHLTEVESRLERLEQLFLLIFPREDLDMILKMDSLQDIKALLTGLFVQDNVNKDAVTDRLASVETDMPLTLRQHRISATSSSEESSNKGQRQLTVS

Usually pEC50 stands for the EC50 on a negative log10 scale, so that one unit is a factor of ten. On to `O=C(O)c1cc(C2CCOC2)c2nc(N3C[C@@H]4C[C@H]3C[C@H]4OCc3c(-c4c(Cl)cccc4Cl)noc3C3CC3)sc2c1` (stereo partly drawn) [Compound I-251, 2-[(1S,4S,5R)-5-{[5-cyclopropyl-3-(2,6-dichlorophenyl)-1,2-oxazol-4-yl]methoxy}-2-azabicyclo[2.2.1]heptan-2-yl]-4-(oxolan-3-yl)-1,3-benzothiazole-6-carboxylic Acid], for which, in assay [1] (setting [3]), the pEC50 is recorded as 9.1. In addition, in assay [1], the Emax amounted to 133%. For the same molecule, in assay [2], the Emax stood at 110% and the EC50 was 0.2 nM.
Regarding `CC1(C)CC(S(=O)(=O)NC(=O)c2ccc(N3C(=O)[C@@H]4C[C@H]3C[C@H]4OCc3c(-c4c(Cl)cccc4Cl)noc3C3CC3)cc2)CCO1` (stereo partly drawn) [Compound I-329, 4-[(1S,4R,5R)-5-{[5-cyclopropyl-3-(2,6-dichlorophenyl)-1,2-oxazol-4-yl]methoxy}-3-oxo-2-azabicyclo[2.2.1]heptan-2-yl]-N-[(2,2-dimethyloxan-4-yl)sulfonyl]benzamide], in assay [1] (setting [3]), the pEC50 is given as 9. In addition, the Emax in assay [1] was 162%. In assay [2], the Emax stood at 117% and the EC50 is 0.794 nM.
As to `CC(CCS(=O)(=O)NC(=O)c1ccc(N2C[C@@H]3C[C@H]2C[C@H]3OCc2c(-c3c(Cl)cccc3Cl)noc2C2CC2)cc1)OC(=O)CCC(=O)O` (stereo partly drawn) [Compound I-218, 4-({4-[({4-[(1S,4S,5R)-5-{[5-cyclopropyl-3-(2,6-dichlorophenyl)-1,2-oxazol-4-yl]methoxy}-2-azabicyclo[2.2.1]heptan-2-yl]phenyl}formamido)sulfonyl]butan-2-yl}oxy)-4-oxobutanoic Acid], the EC50 in assay [1] (setting [3]) is 2.51 nM; in assay [2] it was 5.01 nM. Also, the results for the Emax in assay [1] and in assay [2] were 146% and 101%, respectively.
`CC1(C)CC(S(=O)(=O)NC(=O)c2ncc(N3C(=O)[C@@H]4C[C@H]3C[C@H]4OCc3c(-c4c(Cl)cccc4Cl)noc3C3CC3)cc2F)CCO1` (stereo partly drawn) [Compound I-357, 5-((1S,4R,5R)-5-((5-cyclopropyl-3-(2,6-dichlorophenyl)isoxazol-4-yl)methoxy)-3-oxo-2-azabicyclo[2.2.1]heptan-2-yl)-N-((2,2-dimethyltetrahydro-2H-pyran-4-yl)sulfonyl)-3-fluoropicolinamide] registered a pEC50 in assay [1] (setting [3]) of 8.4. Moreover, the Emax in assay [1] amounted to 166%.
For `O=C(O)c1ncc(N2C(=O)[C@@H]3C[C@H]2C[C@H]3OCc2c(-c3c(Cl)cccc3Cl)noc2C2CC2)cn1` [Compound I-323, 5-[(1S,4R,5R)-5-{[5-cyclopropyl-3-(2,6-dichlorophenyl)-1,2-oxazol-4-yl]methoxy}-3-oxo-2-azabicyclo[2.2.1]heptan-2-yl]pyrimidine-2-carboxylic Acid] the same measures were 6.4 and 103%.
The like results for `C[C@@H]1[C@@H]2C[C@@H](C[C@H]2OCc2c(-c3c(Cl)cccc3Cl)noc2C2CC2)N1c1ccc(C(=O)O)cn1` [Compound I-369, 6-[(1S,3R,4S,5R)-5-[[5-cyclopropyl-3-(2,6-dichlorophenyl)-1,2-oxazol-4-yl]methoxy]-3-methyl-2-azabicyclo[2.2.1]heptan-2-yl]pyridine-3-carboxylic acid] were, in that order, 6.8 and 50%.
For `C[C@H]1[C@H]2C[C@H](C[C@@H]2OCc2c(-c3c(Cl)cccc3Cl)noc2C2CC2)N1c1ccc(C(=O)NS(=O)(=O)C2CCOCC2)cn1` [Compound I-374, 6-[(1R,3S,4R,5S)-5-[[5-cyclopropyl-3-(2,6-dichlorophenyl)-1,2-oxazol-4-yl]methoxy]-3-methyl-2-azabicyclo[2.2.1]heptan-2-yl]-N-(oxane-4-sulfonyl)pyridine-3-carboxamide], in assay [1] (setting [3]), the pEC50 amounted to 6. For the same molecule, the Emax in assay [1] was found to be 48%.
For `CC[C@H]1[C@H]2C[C@H](C[C@@H]2OCc2c(-c3c(Cl)cccc3Cl)noc2C2CC2)N1c1ccc(C(=O)O)cc1` [Compound I-366, 4-[(1R,3S,4R,5S)-5-[[5-cyclopropyl-3-(2,6-dichlorophenyl)-1,2-oxazol-4-yl]methoxy]-3-ethyl-2-azabicyclo[2.2.1]heptan-2-yl]benzoic acid] the same measures were 6.2 and 56%.
The like results for `O=C(O)CCc1ncc(N2C(=O)[C@@H]3C[C@H]2C[C@H]3OCc2c(-c3c(Cl)cccc3Cl)noc2C2CC2)cc1F` [Compound I-328, 3-{5-[(1S,4R,5R)-5-{[5-cyclopropyl-3-(2,6-dichlorophenyl)-1,2-oxazol-4-yl]methoxy}-3-oxo-2-azabicyclo[2.2.1]heptan-2-yl]-3-fluoropyridin-2-yl}propanoic Acid] were, in that order, 6.9 and 87%.
For `O=C(NS(=O)(=O)[C@@H]1CCC[C@H]1O)c1ncc(N2C(=O)[C@@H]3C[C@H]2C[C@H]3OCc2c(-c3c(Cl)cccc3Cl)noc2C2CC2)cc1F` [Compound I-349, 5-[(1S,4R,5R)-5-{[5-cyclopropyl-3-(2,6-dichlorophenyl)-1,2-oxazol-4-yl]methoxy}-3-oxo-2-azabicyclo[2.2.1]heptan-2-yl]-3-fluoro-N-{[(1R,2R)-2-hydroxycyclopentyl]sulfonyl}pyridine-2-carboxamide] the same measures were 8.2 and 171%.
In assay [1] (setting [3]), `C[C@H]1[C@H]2C[C@H](C[C@@H]2OCc2c(-c3c(Cl)cccc3Cl)noc2C2CC2)N1c1ccc(C(=O)O)nc1` [Compound I-368, 5-[(1R,3S,4R,5S)-5-[[5-cyclopropyl-3-(2,6-dichlorophenyl)-1,2-oxazol-4-yl]methoxy]-3-methyl-2-azabicyclo[2.2.1]heptan-2-yl]pyridine-2-carboxylic acid] showed a pEC50 of 5.8. For the same molecule, in assay [1], the Emax was 22%.
For `O=C(O)c1ncc(N2C(=O)[C@@H]3C[C@H]2C[C@H]3OCc2c(-c3c(Cl)cccc3Cl)noc2C2CC2)cc1F` [Compound I-326, 5-[(1S,4R,5R)-5-{[5-cyclopropyl-3-(2,6-dichlorophenyl)-1,2-oxazol-4-yl]methoxy}-3-oxo-2-azabicyclo[2.2.1]heptan-2-yl]-3-fluoropyridine-2-carboxylic Acid] the same measures were 7.1 and 132%.
The like results for `C[C@H]1[C@H]2C[C@H](C[C@@H]2OCc2c(-c3c(Cl)cccc3Cl)noc2C2CC2)N1c1ccc(C(=O)O)cn1` [Compound I-370, 6-[(1R,3S,4R,5S)-5-[[5-cyclopropyl-3-(2,6-dichlorophenyl)-1,2-oxazol-4-yl]methoxy]-3-methyl-2-azabicyclo[2.2.1]heptan-2-yl]pyridine-3-carboxylic acid] were, in that order, 4.5 and 79%.
The like results for `O=C(NS(=O)(=O)C1CCOCC1)c1ccc(N2C(=O)[C@@H]3C[C@H]2C[C@H]3OCc2c(-c3c(Cl)cccc3Cl)noc2C2CC2)cn1` [Compound I-352, 5-((1S,4R,5R)-5-((5-cyclopropyl-3-(2,6-dichlorophenyl)isoxazol-4-yl)methoxy)-3-oxo-2-azabicyclo[2.2.1]heptan-2-yl)-N-((tetrahydro-2H-pyran-4-yl)sulfonyl)picolinamide] were, in that order, 8 and 154%.
In assay [1] (setting [3]), `CC[C@@H]1[C@@H]2C[C@@H](C[C@H]2OCc2c(-c3c(Cl)cccc3Cl)noc2C2CC2)N1c1ccc(C(=O)O)cc1` [Compound I-365, 4-[(1S,3R,4S,5R)-5-[[5-cyclopropyl-3-(2,6-dichlorophenyl)-1,2-oxazol-4-yl]methoxy]-3-ethyl-2-azabicyclo[2.2.1]heptan-2-yl]benzoic acid] displayed a pEC50 of 6.4. Moreover, the Emax in assay [1] came to 67%.
For `O=C(NS(=O)(=O)C1CCCC1)c1ncc(N2C(=O)[C@@H]3C[C@H]2C[C@H]3OCc2c(-c3c(Cl)cccc3Cl)noc2C2CC2)cc1F` [Compound I-356, N-(cyclopentylsulfonyl)-5-((1S,4R,5R)-5-((5-cyclopropyl-3-(2,6-dichlorophenyl)isoxazol-4-yl)methoxy)-3-oxo-2-azabicyclo[2.2.1]heptan-2-yl)-3-fluoropicolinamide] the same measures were 8.6 and 168%.
